Source: US20240246935A1 (Plexium, Inc., priority 2021, published 2024)

How the values were obtained:
[1] = test system: IKZF1 (Ikaros); assay: IKZF1 reporter degradation assay (HEK 293T IKZF1-mNeonGreen reporter cell line); format: cell-based, human; details: HEK 293T IKZF1 reporter cells, 24 hour incubation
Text: (§1) Polycistronic plasmids were constructed for the mammalian expression of fluorescent reporter fusions of human transcription factors IKZF1 (Ikaros), IKZF2 (Helios), and IKZF3 (Aiolos). The respective protein sequences had their C-terminal end joined to a GGGGS linker repeated three times followed by mNeonGreen, P2A sequence, and mScarlet. The DNA sequences of the open reading frames are as follows:
(§2) IKZF1, IKZF2, and IKZF3 constructs were cloned into the UCOE Hygromycin expression vectors (Millipore Sigma). Reporter constructs were transfected using cationic lipid reagents into adherent HEK 293T cells and stable integrants were selected by treatment with 200 μg/mL hygromycin B. Clonal populations were obtained from the population of stable integrants either by limiting dilution or fluorescence activated cell sorting.
(§3) The clonal stable cell lines were maintained under constant 200 μg/mL hygromycin B selection while being passaged for use in the degradation assays. […] The fluorescence intensity of the IKZF1/2/3-mNeonGreen (FITC channel) and mScarlet (PE channel) reporters were routinely analyzed by flow cytometry to confirm consistent expression levels between experiments.
(§4) The IKZF1/IKZF2/IKZF3 degradation assays were carried out by harvesting the HEK 293T reporter cell lines and resuspending the cells in media formulated for reduced background fluorescence (FluoroBrite; Thermo Fisher). The respective cell lines were seeded at a density of 4000 cells/well into black-walled 384-well optical grade assay tissue culture plates. The cells were incubated overnight at 37° C. to allow for attachment to the assay plate. Dilutions of the compounds were prepared in DMSO from 10 mM compound stocks. The assay plates were treated with appropriate concentrations of the compounds by dispensing the DMSO dilutions in quadruplicate wells with an upper limit of 0.5% final DMSO.
(§5) After 24 hour incubation with the compounds, the assay plates were imaged on an ImageXpress Pico microscopy system (cells maintained at 37° C. during imaging) to obtain the fluorescent readouts. The assay plates were imaged in the FITC and Tetramethylrhodamine (TRITC) channels to obtain the mNeonGreen fluorescence intensity (reporter degradation data) and mScarlet fluorescence intensity (for cell segmentation). 293T-IKZF1 and 293T-IKZF3 reporter cell lines were imaged with exposures of 500 milliseconds (ms) for both FITC and TRITC channels, while the 293T-IKZF2 reporter cell line was imaged with exposures of 1000 ms for FITC and 1250 ms for TRITC. The resulting data was analyzed with Cell Reporter Xpress software using the 2-channel cell scoring analysis with a “percent positive” readout. The TRITC channel was selected for the “nuclei” segmentation with a threshold of 20 while the FITC channel was selected for the “Marker 1” segmentation and a threshold of 100 for the IKZF1 and IKZF3 reporter lines. […] The minimum segmentation width was set to 6 micrometers and the maximum segmentation width was set to 15 micrometers for all cell lines. The DCs calculations were determined by regression to best fit four-parameter logistic curves using GraphPad Prism.

[2] = test system: IKZF2 (Helios); assay: IKZF2 reporter degradation assay (HEK 293T IKZF2-mNeonGreen reporter cell line); format: cell-based, human; details: 24 hour incubation; for IKZF2 % Degradation @ 1 μM: 1 μM compound
Procedure, shortened: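 HEK 293T lines stably expressing each IKZF-GGGGS×3-mNeonGreen-P2A-mScarlet reporter, 4000 cells/well in FluoroBrite medium, treated with compound (≤0.5% DMSO) for 24 h at 37 °C. Imaging measured percent mNeonGreen-positive cells, with mScarlet used for segmentation; DC50 from four-parameter logistic fit.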

[3] = test system: IKZF3 (Aiolos); assay: IKZF3 reporter degradation assay (HEK 293T IKZF3-mNeonGreen reporter cell line); format: cell-based, human; details: HEK 293T IKZF3 reporter cells, 24 hour incubation
Text: as §1, §2, §3, §4, §5

[4] = target: GSPT1 (Homo sapiens (Human), UniProt P15170+Q96SW2); assay: GSPT1 reporter degradation assay (HEK293 hGSPT1 HiBiT-tagged cells); format: cell-based; details: 24 hour incubation
Procedure: HEK293_hGSPT1_HiBiT-tagged cells were generated using CRISPR-Cas12a technology. Briefly, ˜400,000 HEK293 cells were transiently co-transfected with precomplexed ribonuclear proteins (RNPs) consisting of 80 pmol of crRNA (IDT), 62 pmol of Cas12a protein (IDT), 3 μg of ssODN donor (IDT; AltR® modifications), 78 pmol of electroporation enhancer (IDT), and 200 ng of pMaxGFP (Lonza). The transfection was performed via nucleofection (Lonza, 4D-Nucleofector X-unit) using solution P3 and program CM-130 in a (20 μL) cuvette. Five days post-nucleofection, cells were single-cell-sorted for GFP+(transfected) cells by FACs in 96-well plates and clonally selected. Clones were screened and verified for the desired modification via targeted deep sequencing using gene-specific primers with partial Illumina adapter overhangs as previously described. In brief, clonal cell pellets were harvested, lysed, and used to generate gene-specific amplicons with partial Illumina adapters in PCR #1. Amplicons were indexed in PCR #2 and pooled with other targeted amplicons for other loci to create sequence diversity. Additionally, 10% PhiX sequencing control V3 (Illumina) was added to the pooled amplicon library prior to running the sample on a Miseq Sequencer System (Illumina) to generate paired 2×250 bp reads. Samples were demultiplexed using the index sequences, fastq files were generated, and NGS analysis was performed using CRIS.py. Final clones were authenticated using the PowerPlex fusion system (Promega) and tested negative for mycoplasma by the MycoAlert™Plus mycoplasma detection kit (Lonza).
Editing construct sequences and screening primers are outlined below (sequence from 5′ to 3′). hGSPT1Cas12acrRNA, CAGE635.GSPT1.g1: […] (SEQ ID NO: 4); CAGE635.g1.anti.ssODN: ttcctcacagtattgtgcagggtcatcaagaaaatgctta[…] CAGCCGCTCACgtcCttctctggaaccagtttcagaacttttccaattgcaatggtcttacctagaaatgaaattttaa (HiBiT tag and silent blocking modifications to prevent Cas12a recutting after integration are in upper case) (SEQ ID NO: 5); CAGE635.hGSPT1.DS.F: […] (SEQ ID NO: 6); CAGE635.hGSPT1.DS.R: GTGAA GTAGGCTTCTGCAGTC (SEQ ID NO: 7).
The GSPT1 degradation assay was carried out by harvesting the HEK 293T reporter cell lines and resuspending the cells in media formulated for reduced background fluorescence (FluoroBrite; Thermo Fisher). The respective cell lines were seeded at a density of 8,000 cells/well into white-opaque 384-well optical grade assay tissue culture plates (Greiner 781080-20). The cells were incubated overnight at 37° C. to allow for attachment to the assay plate. Dilutions of the compounds were prepared in DMSO from 10 mM compound stocks. Test compounds were added in a 10-point dilution series (typically 10 μM to […]) using a TECAN D300e Digital Dispenser with an upper limit of 0.5% final DMSO. Plates were centrifuged at 320×g for 2 minutes at room temperature, and subsequently incubated at 37° C.
After 24 hour incubation with the compounds, the plates were allowed to cool to room temperature for 10 minutes. 30 μL of HiBiT lytic buffer+1:50 HiBiT substrate Solution were added to each well. Plates were centrifuged at 320×g for 2 minutes at room temperature and then incubated with shaking at room temperature for 10 minutes covered with foil. Plates were read on a CLARIOstar microplate reader (BMG LabTech), measuring at 450 nm (donor emission) and 610 nm or 630 nm (acceptor emission). The DC50 values were determined by regression to best fit four-parameter logistic curves using GraphPad Prism.

Chain of GSPT1 (P15170 whole entry): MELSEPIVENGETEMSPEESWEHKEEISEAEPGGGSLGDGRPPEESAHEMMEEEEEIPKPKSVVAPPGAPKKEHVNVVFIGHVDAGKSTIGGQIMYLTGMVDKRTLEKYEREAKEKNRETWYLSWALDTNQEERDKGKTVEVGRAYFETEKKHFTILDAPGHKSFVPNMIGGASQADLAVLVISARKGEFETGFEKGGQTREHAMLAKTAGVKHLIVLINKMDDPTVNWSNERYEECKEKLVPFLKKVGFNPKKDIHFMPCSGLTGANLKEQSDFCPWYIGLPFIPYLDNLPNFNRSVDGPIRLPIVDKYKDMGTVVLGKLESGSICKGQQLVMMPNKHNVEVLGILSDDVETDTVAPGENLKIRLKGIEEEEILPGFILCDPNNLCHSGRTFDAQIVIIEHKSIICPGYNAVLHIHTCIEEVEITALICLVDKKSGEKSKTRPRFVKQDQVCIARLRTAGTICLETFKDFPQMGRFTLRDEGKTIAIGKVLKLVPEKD
Chain of GSPT1 (Q96SW2 whole entry): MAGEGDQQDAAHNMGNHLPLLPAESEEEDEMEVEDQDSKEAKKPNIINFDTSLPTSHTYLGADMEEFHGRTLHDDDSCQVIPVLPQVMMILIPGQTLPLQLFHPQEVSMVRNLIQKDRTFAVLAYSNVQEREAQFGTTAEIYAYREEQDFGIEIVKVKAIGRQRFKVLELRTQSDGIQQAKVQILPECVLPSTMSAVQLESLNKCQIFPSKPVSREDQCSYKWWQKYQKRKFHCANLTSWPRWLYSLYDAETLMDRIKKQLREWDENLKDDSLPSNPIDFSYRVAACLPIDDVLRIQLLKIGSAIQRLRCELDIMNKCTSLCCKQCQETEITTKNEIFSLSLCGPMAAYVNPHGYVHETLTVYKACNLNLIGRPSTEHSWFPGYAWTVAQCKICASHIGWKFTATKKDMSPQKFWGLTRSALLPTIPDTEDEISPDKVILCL
Chain of GSPT1 (Q16531 whole entry partner): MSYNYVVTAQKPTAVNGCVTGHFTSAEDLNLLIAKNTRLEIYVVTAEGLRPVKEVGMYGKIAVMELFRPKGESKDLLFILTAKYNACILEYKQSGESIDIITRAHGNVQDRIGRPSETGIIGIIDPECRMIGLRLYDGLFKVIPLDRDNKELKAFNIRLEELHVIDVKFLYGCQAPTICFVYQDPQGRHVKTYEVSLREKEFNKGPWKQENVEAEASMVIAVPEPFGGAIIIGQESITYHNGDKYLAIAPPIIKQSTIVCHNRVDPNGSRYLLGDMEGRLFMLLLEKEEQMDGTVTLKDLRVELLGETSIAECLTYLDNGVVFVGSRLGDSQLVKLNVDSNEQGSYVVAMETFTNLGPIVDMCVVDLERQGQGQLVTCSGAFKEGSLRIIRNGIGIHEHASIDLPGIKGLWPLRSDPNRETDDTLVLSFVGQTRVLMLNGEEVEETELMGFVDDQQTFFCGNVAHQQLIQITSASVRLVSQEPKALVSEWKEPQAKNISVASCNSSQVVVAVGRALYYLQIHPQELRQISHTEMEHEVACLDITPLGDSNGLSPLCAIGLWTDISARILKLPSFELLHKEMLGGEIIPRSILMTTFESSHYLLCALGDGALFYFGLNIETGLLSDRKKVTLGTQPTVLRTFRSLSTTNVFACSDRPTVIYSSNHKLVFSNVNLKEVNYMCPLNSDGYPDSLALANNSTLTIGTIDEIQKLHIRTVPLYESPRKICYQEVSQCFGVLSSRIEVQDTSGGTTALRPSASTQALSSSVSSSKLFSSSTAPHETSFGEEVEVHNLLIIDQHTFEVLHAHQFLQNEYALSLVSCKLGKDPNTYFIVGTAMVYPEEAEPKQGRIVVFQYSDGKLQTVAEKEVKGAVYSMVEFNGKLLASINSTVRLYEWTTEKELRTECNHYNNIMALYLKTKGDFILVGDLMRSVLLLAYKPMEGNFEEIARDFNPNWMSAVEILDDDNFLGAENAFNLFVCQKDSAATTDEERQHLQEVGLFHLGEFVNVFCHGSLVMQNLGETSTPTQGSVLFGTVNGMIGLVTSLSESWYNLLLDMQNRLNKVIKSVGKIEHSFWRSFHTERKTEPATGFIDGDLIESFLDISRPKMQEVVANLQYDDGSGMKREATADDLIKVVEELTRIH

| SMILES | DC50 [1] [µM] | IKZF2 % Degradation @ 1 μM ([2]; HEK 293T IKZF2 reporter cells) [%] | DC50 ([2]; HEK 293T IKZF2 reporter cells) [µM] | DC50 [3] [µM] | DC50 [4] [µM] | IKZF2 % Degradation @ 1 μM ([2]; HEK 293T IKZF2-mNeonGreen reporter) [%] |
| --- | --- | --- | --- | --- | --- | --- |
| O=C1CCC(N2Cc3cc(O[C@H]4CCCC[C@@H]4N4CC(c5ccccc5F)C4)ccc3C2=O)C(=O)N1 (stereo in doubt) [Compound 27] | > 30 | 82.1 | 0.005 | > 30 | – | – |
| O=C1CCC(N2Cc3cc(O[C@H]4CCCC[C@@H]4N4CCC(c5ccccc5)C4)ccc3C2=O)C(=O)N1 (stereo partly drawn) [Compound 1, 3-(1-oxo-5-(((1S,2S)-2-(3-phenylpyrrolidin-1-yl)cyclohexyl)oxy)isoindolin-2-yl)piperidine-2,6-dione] | > 30 | 79.9 | 0.024 | > 30 | > 30 | – |
| O=C1CC[C@H](N2Cc3cc(O[C@H]4CCCC[C@@H]4N4CC(c5ccccc5)C4)ccc3C2=O)C(=O)N1 [Compound 10, (S)-3-(1-oxo-5-(((1S,2S)-2-(3-phenylazetidin-1-yl)cyclohexyl)oxy)isoindolin-2-yl)piperidine-2,6-dione] | > 30 | 78.7 | 0.006 | > 30 | > 30 | – |
| O=C1CCC(N2Cc3cc(O[C@@H]4CCCC[C@H]4N4CC(c5ccccc5)C4)ccc3C2=O)C(=O)N1 (stereo partly drawn) [Compound 11, 3-(1-oxo-5-(((1R,2R)-2-(3-phenylazetidin-1-yl)cyclohexyl)oxy)isoindolin-2-yl)piperidine-2,6-dione] | > 30 | – | > 30 | > 30 | – | – |
| O=C1CCC(N2Cc3cc(O[C@@H]4CCCC[C@@H]4N4CC(c5ccccc5)C4)ccc3C2=O)C(=O)N1 (stereo partly drawn) [Compound 13, 3-(1-oxo-5-(((1R,2S)-2-(3-phenylazetidin-1-yl)cyclohexyl)oxy)isoindolin-2-yl)piperidine-2,6-dione] | > 30 | – | > 30 | > 30 | – | – |
| O=C1CC[C@H](N2Cc3cc(O[C@@H]4CCCC[C@H]4N4CC(c5ccccc5)C4)ccc3C2=O)C(=O)N1 [Compound 14, (S)-3-(1-oxo-5-(((1R,2R)-2-(3-phenylazetidin-1-yl)cyclohexyl)oxy)isoindolin-2-yl)piperidine-2,6-dione] | > 30 | 33.5 | 0.292 | > 30 | – | – |
| O=C1CCC(N2Cc3cc(O[C@H]4CCCC[C@@H]4N4CC(c5ccccc5Cl)C4)ccc3C2=O)C(=O)N1 (stereo partly drawn) [Compound 15, 3-(5-(((1S,2S)-2-(3-(2-chlorophenyl)azetidin-1-yl)cyclohexyl)oxy)-1-oxoisoindolin-2-yl)piperidine-2,6-dione] | > 30 | 78.9 | 0.004 | > 30 | – | – |
| COc1ccccc1C1CN([C@H]2CCCC[C@@H]2Oc2ccc3c(c2)CN(C2CCC(=O)NC2=O)C3=O)C1 (stereo partly drawn) [Compound 19, 3-(5-(((1S,2S)-2-(3-(2-methoxyphenyl)azetidin-1-yl)cyclohexyl)oxy)-1-oxoisoindolin-2-yl)piperidine-2,6-dione] | > 30 | 84.5 | 0.004 | > 30 | – | – |
| O=C1CCC(N2Cc3cc(O[C@H]4CCCC[C@@H]4N4CC(c5ccc(F)c(F)c5)C4)ccc3C2=O)C(=O)N1 (stereo partly drawn) [Compound 23, 3-(5-(((1S,2S)-2-(3-(3,4-difluorophenyl)azetidin-1-yl)cyclohexyl)oxy)-1-oxoisoindolin-2-yl)piperidine-2,6-dione] | > 30 | 79.2 | 0.005 | > 30 | > 30 | – |
| O=C1CCC(N2Cc3cc(O[C@H]4CCCC[C@@H]4N4CC(c5ccc(-n6cccn6)cc5)C4)ccc3C2=O)C(=O)N1 (stereo partly drawn) [Compound 31, 3-(5-(((1S,2S)-2-(3-(4-(1H-pyrazol-1-yl)phenyl)azetidin-1-yl)cyclohexyl)oxy)-1-oxoisoindolin-2-yl)piperidine-2,6-dione] | > 30 | 83.3 | 0.0005 | > 30 | – | – |
| O=C1CCC(N2Cc3cc(O[C@H]4CCCC[C@@H]4N4CC(c5ccccc5)C4)ccc3C2=O)C(=O)N1 (stereo partly drawn) [Compound 127, 3-(1-oxo-5-(((1S,2S)-2-(3-phenylazetidin-1-yl)cyclohexyl)oxy)isoindolin-2-yl)piperidine-2,6-dione] | – | – | – | – | > 30 | 77.9 |
